Source: PMC5218480 (PLoS ONE, 2017)

System: MV-4-11 cells
Assay: Gene expression microarray analysis (Affymetrix PrimeView) and GSEA
Format: cell-based, human
Design: RFU PODN (11730768_x_at) / Fold change /veh PODN (11730768_x_at) / RFU LINC00158 (11744669_a_at) / Fold change /veh LINC00158 (11744669_a_at) / RFU DUSP10 (11751237_a_at) / Fold change /veh DUSP10 (11751237_a_at) / RFU ID3 (11757404_x_at) / Fold change /veh ID3 (11757404_x_at) / RFU PLEKHG5 (11737974_s_at) / Fold change /veh PLEKHG5 (11737974_s_at) / RFU LRRC4B (11730491_at) / Fold change /veh LRRC4B (11730491_at) / RFU GIMAP4 (11747438_a_at) / Fold change /veh GIMAP4 (11747438_a_at) / RFU KRT8 (11758183_x_at) / Fold change /veh KRT8 (11758183_x_at) / RFU CNN1 (11734310_a_at) / Fold change /veh CNN1 (11734310_a_at) / RFU VPS37D (11726825_at) / Fold change /veh VPS37D (11726825_at) / RFU C10orf10 (11716522_x_at) / Fold change /veh C10orf10 (11716522_x_at) / RFU KIR2DL2 /// KIR2DL4 /// KIR2DL5A /// KIR2DL5B /// KIR2DS1 /// KIR2DS2 /// KIR2DS3 /// KIR2DS4 /// KIR3DL3 /// KIR3DL3 /// KIR3DS1 (11738374_at) / Fold change /veh KIR2DL2 /// KIR2DL4 /// KIR2DL5A /// KIR2DL5B /// KIR2DS1 /// KIR2DS2 /// KIR2DS3 /// KIR2DS4 /// KIR3DL3 /// KIR3DL3 /// KIR3DS1 (11738374_at) / RFU C1QL1 (11718748_at) / Fold change /veh C1QL1 (11718748_at) / RFU TMPRSS4 (11747572_a_at) / Fold change /veh TMPRSS4 (11747572_a_at) / RFU HAMP (11756126_x_at) / Fold change /veh HAMP (11756126_x_at) / RFU RNFT2 (11725882_a_at) / Fold change /veh RNFT2 (11725882_a_at) / RFU NR4A2 (11747474_a_at) / Fold change /veh NR4A2 (11747474_a_at) / RFU ABCC12 (11746883_a_at) / Fold change /veh ABCC12 (11746883_a_at) / RFU TMEM136 (11760407_x_at) / Fold change /veh TMEM136 (11760407_x_at) / RFU CLDN22 /// WWC2 (11732394_at) / Fold change /veh CLDN22 /// WWC2 (11732394_at) / RFU HLA-DPB1 (11760878_x_at) / Fold change /veh HLA-DPB1 (11760878_x_at) / RFU SPINT1 (11716480_a_at) / Fold change /veh SPINT1 (11716480_a_at) / RFU GAP43 (11754022_s_at) / Fold change /veh GAP43 (11754022_s_at) / RFU A4GNT (11735810_at) / Fold change /veh A4GNT (11735810_at) / RFU PRB3 (11715151_x_at) / Fold change /veh PRB3 (11715151_x_at) / RFU TUBB4B (11761932_at) / Fold change /veh TUBB4B (11761932_at) / RFU CAPN14 (11732068_a_at) / Fold change /veh CAPN14 (11732068_a_at) / RFU TMCC2 (11721928_a_at) / Fold change /veh TMCC2 (11721928_a_at) / RFU IRGQ (11745062_a_at) / Fold change /veh IRGQ (11745062_a_at) / RFU FAM174B (11720279_a_at) / Fold change /veh FAM174B (11720279_a_at) / RFU TMPRSS4 (11748680_a_at) / Fold change /veh TMPRSS4 (11748680_a_at) / RFU FAM212B (11763350_a_at) / Fold change /veh FAM212B (11763350_a_at) / RFU PLEKHG5 (11743358_a_at) / Fold change /veh PLEKHG5 (11743358_a_at) / RFU ZSCAN30 (11745921_a_at) / Fold change /veh ZSCAN30 (11745921_a_at) / RFU CMKLR1 (11741424_a_at) / Fold change /veh CMKLR1 (11741424_a_at) / RFU LOC101060620 /// MAPK8IP1 (11723275_at) / Fold change /veh LOC101060620 /// MAPK8IP1 (11723275_at) / RFU SPTSSB (11747773_x_at) / Fold change /veh SPTSSB (11747773_x_at) / RFU PRSS12 (11739890_at) / Fold change /veh PRSS12 (11739890_at) / RFU BIN1 (11741810_x_at) / Fold change /veh BIN1 (11741810_x_at) / RFU WNT11 (11732464_a_at) / Fold change /veh WNT11 (11732464_a_at) / RFU C10orf10 (11716521_a_at) / Fold change /veh C10orf10 (11716521_a_at) / RFU C5orf56 (11738089_at) / Fold change /veh C5orf56 (11738089_at) / RFU CYB561 (11721691_x_at) / Fold change /veh CYB561 (11721691_x_at) / RFU ANKRD19P (11752326_a_at) / Fold change /veh ANKRD19P (11752326_a_at) / RFU OR2T12 /// OR2T33 /// OR2T8 (11738714_s_at) / Fold change /veh OR2T12 /// OR2T33 /// OR2T8 (11738714_s_at) / RFU VCAN (11748164_a_at) / Fold change /veh VCAN (11748164_a_at) / RFU JSRP1 (11732532_at) / Fold change /veh JSRP1 (11732532_at) / RFU KRTAP10-11 (11738290_x_at) / Fold change /veh KRTAP10-11 (11738290_x_at) / RFU MYO3A (11730013_a_at) / Fold change /veh MYO3A (11730013_a_at) / RFU EBF3 (11725865_a_at) / Fold change /veh EBF3 (11725865_a_at) / RFU CAMK2N1 (11719241_x_at) / Fold change /veh CAMK2N1 (11719241_x_at) / RFU C5orf56 (11738088_a_at) / Fold change /veh C5orf56 (11738088_a_at) / RFU OLFML3 (11715873_a_at) / Fold change /veh OLFML3 (11715873_a_at) / RFU LOC100653217 /// NTM (11731650_a_at) / Fold change /veh LOC100653217 /// NTM (11731650_a_at) / RFU MAPK11 (11762145_a_at) / Fold change /veh MAPK11 (11762145_a_at) / RFU FIZ1 (11724087_x_at) / Fold change /veh FIZ1 (11724087_x_at) / RFU OASL (11726364_x_at) / Fold change /veh OASL (11726364_x_at) / RFU SOX15 (11748057_x_at) / Fold change /veh SOX15 (11748057_x_at) / RFU CD79A (11719716_a_at) / Fold change /veh CD79A (11719716_a_at) / RFU HIST1H1D (11736915_at) / Fold change /veh HIST1H1D (11736915_at) / RFU CASKIN2 (11723855_a_at) / Fold change /veh CASKIN2 (11723855_a_at) / RFU LOC730098 (11760151_x_at) / Fold change /veh LOC730098 (11760151_x_at) / RFU OR4N2 (11742367_at) / Fold change /veh OR4N2 (11742367_at) / RFU PRRT2 (11749266_a_at) / Fold change /veh PRRT2 (11749266_a_at) / RFU SNX32 (11753110_a_at) / Fold change /veh SNX32 (11753110_a_at) / RFU CDHR5 (11726645_a_at) / Fold change /veh CDHR5 (11726645_a_at) / RFU RCAN1 (11760418_a_at) / Fold change /veh RCAN1 (11760418_a_at) / RFU FAM167A (11723789_a_at) / Fold change /veh FAM167A (11723789_a_at) / RFU FAM26E (11764081_at) / Fold change /veh FAM26E (11764081_at) / RFU ISYNA1 (11749810_s_at) / Fold change /veh ISYNA1 (11749810_s_at) / RFU ACY1 (11761880_at) / Fold change /veh ACY1 (11761880_at) / RFU 11764098_at / Fold change /veh 11764098_at / RFU SAMD14 (11745864_x_at) / Fold change /veh SAMD14 (11745864_x_at) / RFU NPB (11741838_a_at) / Fold change /veh NPB (11741838_a_at) / RFU TMPRSS6 (11731388_a_at) / Fold change /veh TMPRSS6 (11731388_a_at) / RFU KRTAP10-2 (11738614_at) / Fold change /veh KRTAP10-2 (11738614_at) / RFU ARHGAP8 /// PRR5-ARHGAP8 (11727945_x_at) / Fold change /veh ARHGAP8 /// PRR5-ARHGAP8 (11727945_x_at) / RFU KRTAP5-7 /// NADSYN1 (11734609_at) / Fold change /veh KRTAP5-7 /// NADSYN1 (11734609_at) / RFU RASL12 (11751679_a_at) / Fold change /veh RASL12 (11751679_a_at) / RFU CDKN2B (11736163_a_at) / Fold change /veh CDKN2B (11736163_a_at) / RFU PRF1 (11729649_at) / Fold change /veh PRF1 (11729649_at) / RFU, ZNF638 /// ZNF638-IT1 / Fold change vs veh, ZNF638 /// ZNF638-IT1 / RFU, PANK3 / Fold change vs veh, PANK3 / RFU, SH3YL1 / Fold change vs veh, SH3YL1 / RFU, ZEB2 / Fold change vs veh, ZEB2 / RFU, NRIP1 / Fold change vs veh, NRIP1 / RFU, PTTG1IP / Fold change vs veh, PTTG1IP / RFU, CAPN2 / Fold change vs veh, CAPN2 / RFU, MED14 / Fold change vs veh, MED14 / RFU, SNORA58 / Fold change vs veh, SNORA58 / RFU, C1orf63 / Fold change vs veh, C1orf63 / RFU, LRRFIP1 / Fold change vs veh, LRRFIP1 / RFU, NDUFAF7 / Fold change vs veh, NDUFAF7 / RFU, SLC12A2 / Fold change vs veh, SLC12A2 / RFU, IBTK / Fold change vs veh, IBTK / RFU, ESF1 / Fold change vs veh, ESF1 / Fold change vs veh, TMEM50B / RFU, TAOK1 / Fold change vs veh, TAOK1 / RFU, ACBD3 / Fold change vs veh, ACBD3 / RFU, TMA16 / Fold change vs veh, TMA16 / RFU, RWDD3 / Fold change vs veh, RWDD3 / RFU, BCAT1 / Fold change vs veh, BCAT1 / RFU, EDEM3 / Fold change vs veh, EDEM3 / RFU, TMEM33 / Fold change vs veh, TMEM33 / RFU, WDR75 / Fold change vs veh, WDR75 / RFU, AHCTF1 / Fold change vs veh, AHCTF1 / RFU, TFRC / Fold change vs veh, TFRC / RFU, ZDHHC17 / Fold change vs veh, ZDHHC17 / RFU, NOM1 / Fold change vs veh, NOM1 / RFU, ARL8B / Fold change vs veh, ARL8B / RFU, ZBTB11 / Fold change vs veh, ZBTB11 / RFU, TAMM41 / Fold change vs veh, TAMM41 / RFU, KIAA1704 /// LOC100996395 / Fold change vs veh, KIAA1704 /// LOC100996395 / RFU, ING1 / Fold change vs veh, ING1 / RFU, TRMT61B / Fold change vs veh, TRMT61B / RFU, FUBP3 / Fold change vs veh, FUBP3 / RFU, TP53 / Fold change vs veh, TP53 / RFU, TNKS2 / Fold change vs veh, TNKS2 / RFU, ZFP14 / Fold change vs veh, ZFP14 / RFU, ACTR2 / Fold change vs veh, ACTR2 / RFU, PPP3R1 / Fold change vs veh, PPP3R1 / RFU, PIK3R1 / Fold change vs veh, PIK3R1 / RFU, HNRNPA1 / Fold change vs veh, HNRNPA1 / RFU, RNF170 / Fold change vs veh, RNF170 / RFU, ZNF28 / Fold change vs veh, ZNF28 / RFU, RNGTT / Fold change vs veh, RNGTT / RFU, OGT / Fold change vs veh, OGT / RFU, BRD1 / Fold change vs veh, BRD1 / RFU, MARS / Fold change vs veh, MARS / RFU, ZNF655 / Fold change vs veh, ZNF655 / RFU, FAHD1 / Fold change vs veh, FAHD1 / RFU, BDP1 / Fold change vs veh, BDP1 / RFU, LRRCC1 / Fold change vs veh, LRRCC1 / RFU, ARID1A / Fold change vs veh, ARID1A / RFU, ZNF146 / Fold change vs veh, ZNF146 / RFU, ZNF330 / Fold change vs veh, ZNF330 / RFU, GPN3 / Fold change vs veh, GPN3 / RFU, C9orf123 / Fold change vs veh, C9orf123 / RFU, N4BP2L2 / Fold change vs veh, N4BP2L2 / RFU, ARFIP1 / Fold change vs veh, ARFIP1 / RFU, FAM179B / Fold change vs veh, FAM179B / RFU, BCL10 / Fold change vs veh, BCL10 / RFU, UHRF1BP1L / Fold change vs veh, UHRF1BP1L / RFU, BET1 / Fold change vs veh, BET1 / RFU, CNOT2 / Fold change vs veh, CNOT2 / RFU, ZNF268 / Fold change vs veh, ZNF268 / Fold change vs veh, ZNF507 / RFU, DGCR2 / Fold change vs veh, DGCR2 / RFU, WDSUB1 / Fold change vs veh, WDSUB1 / Fold change vs veh, HSP90B1 /// MIR3652 / RFU, ADSS / Fold change vs veh, ADSS / RFU, GK / Fold change vs veh, GK / RFU, ZNF148 / Fold change vs veh, ZNF148 / RFU, TAF9 / Fold change vs veh, TAF9 / RFU, SLC1A5 / Fold change vs veh, SLC1A5 / RFU, SLMO2 / Fold change vs veh, SLMO2 / RFU, ABCC4 / Fold change vs veh, ABCC4 / RFU, LOC101060439 /// RAP1B / Fold change vs veh, LOC101060439 /// RAP1B / RFU, RFX7 / Fold change vs veh, RFX7 / RFU, GTPBP10 / Fold change vs veh, GTPBP10 / RFU, CNEP1R1 / Fold change vs veh, CNEP1R1 / RFU, BIVM-ERCC5 /// ERCC5 / Fold change vs veh, BIVM-ERCC5 /// ERCC5 / RFU, ILF3 / Fold change vs veh, ILF3 / RFU 11762660_at / Fold change /veh 11762660_at / RFU VCAN (11757783_s_at) / Fold change /veh VCAN (11757783_s_at) / RFU DDX43 (11728927_at) / Fold change /veh DDX43 (11728927_at) / RFU KRT8 (11758188_x_at) / Fold change /veh KRT8 (11758188_x_at) / RFU NKD1 (11759106_at) / Fold change /veh NKD1 (11759106_at) / RFU SRD5A1 (11742802_a_at) / Fold change /veh SRD5A1 (11742802_a_at) / RFU TPSAB1 /// TPSB2 (11721975_s_at) / Fold change /veh TPSAB1 /// TPSB2 (11721975_s_at) / RFU GSTM3 (11746129_a_at) / Fold change /veh GSTM3 (11746129_a_at) / RFU IL23R (11737362_x_at) / Fold change /veh IL23R (11737362_x_at) / RFU TMEM51 (11727254_a_at) / Fold change /veh TMEM51 (11727254_a_at) / RFU PIWIL2 (11732686_x_at) / Fold change /veh PIWIL2 (11732686_x_at) / RFU ORM1 (11744905_x_at) / Fold change /veh ORM1 (11744905_x_at) / RFU CCDC152 (11743942_at) / Fold change /veh CCDC152 (11743942_at) / RFU ECM1 (11717891_a_at) / Fold change /veh ECM1 (11717891_a_at) / RFU IL23R (11748794_a_at) / Fold change /veh IL23R (11748794_a_at) / RFU TNFAIP8L3 (11732012_x_at) / Fold change /veh TNFAIP8L3 (11732012_x_at) / RFU MBOAT4 (11741988_at) / Fold change /veh MBOAT4 (11741988_at) / RFU 11764193_at / Fold change /veh 11764193_at / RFU TMEM53 (11763286_at) / Fold change /veh TMEM53 (11763286_at) / RFU MAGEB2 (11727129_at) / Fold change /veh MAGEB2 (11727129_at) / RFU TMEM200A (11744735_a_at) / Fold change /veh TMEM200A (11744735_a_at) / RFU CCDC152 (11751479_a_at) / Fold change /veh CCDC152 (11751479_a_at) / RFU FAM211A (11726209_a_at) / Fold change /veh FAM211A (11726209_a_at) / RFU RGS16 (11746705_a_at) / Fold change /veh RGS16 (11746705_a_at) / RFU VCAN (11755009_s_at) / Fold change /veh VCAN (11755009_s_at) / RFU RHOB (11743442_s_at) / Fold change /veh RHOB (11743442_s_at) / RFU RGS16 (11720943_a_at) / Fold change /veh RGS16 (11720943_a_at) / RFU RGS16 (11720944_at) / Fold change /veh RGS16 (11720944_at) / RFU, VPS4B / Fold change vs veh, VPS4B / RFU, CREB1 / Fold change vs veh, CREB1 / RFU, DNAJC13 / Fold change vs veh, DNAJC13 / RFU, GNAQ / Fold change vs veh, GNAQ / RFU, CDK5R1 / Fold change vs veh, CDK5R1 / RFU, ZRANB3 / Fold change vs veh, ZRANB3 / RFU, CUL4A / Fold change vs veh, CUL4A / RFU, CCNY / Fold change vs veh, CCNY / RFU, UFL1 / Fold change vs veh, UFL1 / RFU, COG3 / Fold change vs veh, COG3 / RFU, DIAPH2 / Fold change vs veh, DIAPH2 / RFU, SKA2 / Fold change vs veh, SKA2 / RFU, AFF3 / Fold change vs veh, AFF3 / RFU, LMF1 / Fold change vs veh, LMF1 / RFU, IPO11 / Fold change vs veh, IPO11 / RFU, DFFB / Fold change vs veh, DFFB / RFU, FOXP1 / Fold change vs veh, FOXP1 / RFU, CARD8 / Fold change vs veh, CARD8 / RFU, STRN3 / Fold change vs veh, STRN3 / RFU, ADK / Fold change vs veh, ADK / RFU, RASSF2 / Fold change vs veh, RASSF2 / RFU, WIPF1 / Fold change vs veh, WIPF1 / RFU, LARP1B / Fold change vs veh, LARP1B / RFU, RASA1 / Fold change vs veh, RASA1 / RFU, RB1 / Fold change vs veh, RB1 / RFU, PPFIA1 / Fold change vs veh, PPFIA1 / RFU, MAT2A / Fold change vs veh, MAT2A / RFU, CCT5 / Fold change vs veh, CCT5 / RFU, WDR92 / Fold change vs veh, WDR92 / RFU, CUX1 / Fold change vs veh, CUX1 / RFU, TTC7A / Fold change vs veh, TTC7A / RFU, TMEM135 / Fold change vs veh, TMEM135 / RFU, DEPTOR / Fold change vs veh, DEPTOR / RFU, CPM / Fold change vs veh, CPM / RFU, DNAJB6 / Fold change vs veh, DNAJB6 / RFU, CACNA2D3 / Fold change vs veh, CACNA2D3 / RFU, DTX4 / Fold change vs veh, DTX4 / RFU, TFCP2 / Fold change vs veh, TFCP2 / RFU, GMCL1 /// GMCL1P1 / Fold change vs veh, GMCL1 /// GMCL1P1 / RFU, AEBP2 / Fold change vs veh, AEBP2 / RFU, SNHG1 /// SNORD22 /// SNORD25 /// SNORD26 /// SNORD27 /// SNORD28 /// SNORD29 /// SNORD31 / Fold change vs veh, SNHG1 /// SNORD22 /// SNORD25 /// SNORD26 /// SNORD27 /// SNORD28 /// SNORD29 /// SNORD31 / Fold change (Aza/veh), C12orf56 (ProbeSet 11735607_a_at) / Fold change (ACY-1035/veh), C12orf56 (ProbeSet 11735607_a_at) / Fold change (Aza/veh), FGFR1OP (ProbeSet 11751329_s_at) / Fold change (ACY-1035/veh), FGFR1OP (ProbeSet 11751329_s_at) / Fold change (Aza/veh), VPS36 (ProbeSet 11739960_a_at) / Fold change (ACY-1035/veh), VPS36 (ProbeSet 11739960_a_at) / RFU SYPL1 (11715823_x_at) / Fold change /veh SYPL1 (11715823_x_at) / RFU IGFBP7 (11715501_s_at) / Fold change /veh IGFBP7 (11715501_s_at) / RFU REEP3 (11722064_at) / Fold change /veh REEP3 (11722064_at) / RFU IGLL1 (11728026_x_at) / Fold change /veh IGLL1 (11728026_x_at): dose or concentration left out as unconfirmed
Conditions: ProbeSet 11741123_x_at; LIST D

How did the “RFU, ADK” value turn out when `Nc1ccc(-c2cccs2)cc1NC(=O)c1ccc2c(c1)cc(C1CC1)n2CCN1CCOCC1` [ACY-1035] was run?
Its value is 253.83 RFU.
